Measured values as given in paper PMC4039064, “An inhibitor-driven study for enhancing the selectivity of indirubin derivatives towards leishmanial Glycogen Synthase Kinase-3 over leishmanial cdc2-related protein kinase 3” (Parasites & Vectors, 2014).

How the values were obtained:
[1] = target: T1, LGSK-3 (leishmanial Glycogen Synthase Kinase-3 short) (Leishmania donovani, UniProt A6N857); experiment: luminescent kinase assay (Promega); format: biochemical; conditions: read-out: L GSK-3
T1 construct: recombinant, purified from L. donovani over-expressing transfectants (homologous expression); A6N857 is printed for the L. donovani homology model and alignment
T1 sequence (A6N857 1-355): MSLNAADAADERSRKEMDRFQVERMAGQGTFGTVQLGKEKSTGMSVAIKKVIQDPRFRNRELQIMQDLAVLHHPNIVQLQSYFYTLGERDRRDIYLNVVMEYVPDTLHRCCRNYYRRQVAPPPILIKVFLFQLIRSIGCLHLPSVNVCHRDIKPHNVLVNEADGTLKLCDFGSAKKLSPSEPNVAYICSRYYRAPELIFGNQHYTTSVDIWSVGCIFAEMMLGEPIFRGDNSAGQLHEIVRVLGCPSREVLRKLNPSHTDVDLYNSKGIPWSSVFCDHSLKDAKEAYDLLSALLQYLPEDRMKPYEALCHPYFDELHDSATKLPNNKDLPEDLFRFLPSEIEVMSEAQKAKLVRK

[2] = target: T2, LCRK3 (cdc2-related protein kinase 3) (Leishmania mexicana, UniProt O15851); experiment: luminescent kinase assay (Promega); format: biochemical; conditions: read-out: L CRK3
T2 construct: gene crk3; recombinant, purified from transgenic L. mexicana promastigotes (homologous expression, gift of K. Grant)
T2 sequence (O15851 1-311): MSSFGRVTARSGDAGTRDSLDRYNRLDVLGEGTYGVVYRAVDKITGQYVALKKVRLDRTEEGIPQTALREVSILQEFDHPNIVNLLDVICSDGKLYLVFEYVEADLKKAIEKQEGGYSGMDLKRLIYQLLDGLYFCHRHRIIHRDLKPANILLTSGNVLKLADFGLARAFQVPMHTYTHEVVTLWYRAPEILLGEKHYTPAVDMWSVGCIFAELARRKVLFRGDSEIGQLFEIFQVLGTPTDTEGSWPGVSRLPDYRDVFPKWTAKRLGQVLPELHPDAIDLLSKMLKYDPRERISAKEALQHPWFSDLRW

SMILES: Cc1cc2c(cc1Br)NC(=O)C2=C1Nc2ccccc2C1=NO [5-Me-6-BIO, 5-methyl-6-bromoindirubin-3′-oxime]
- IC50 [1]: 90 ± 20 nM
- IC50 [2]: 650 ± 90 nM
